Tests used:
Assay in all cases: relative viability (nuclei count vs DMSO), 5 days (fraction); higher = more cells survive
[1] = compound: C1=CC=C2C(=C1)N=C(S2)C(C#N)C3=NC(=NC=C3)NCCC4=CN=CC=C4 + Nc1nc2[nH]cc(CCc3ccc(C(=O)N[C@@H](CCC(=O)O)C(=O)O)cc3)c2c(=O)[nH]1 [Pemetrexed] (partner 0.2 µM)
How it was run: (§1)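 A single step with final 0.05% Triton X-100, 1% formaldehyde and 1 ug/ml Hoechst fixed the cells and stained nuclei 5 days after treatment. Lung cancer cell lines in 1536-well plates had been treated by pin tool the day after seeding with one drug alone or a fixed anchor-drug dose plus five library-drug doses (not always all listed) in √10 steps, and nuclei were counted on 4× images. Relative viability is the ratio of nuclei in treated wells to nuclei in vehicle wells, taken as the median of duplicate plates.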

NVP-TAE684 + Palbociclib = compound: COc1cc(N2CCC(N3CCN(C)CC3)CC2)ccc1Nc1ncc(Cl)c(Nc2ccccc2S(=O)(=O)C(C)C)n1 [NVP-TAE684] + CC(=O)c1c(C)c2cnc(Nc3ccc(N4CCNCC4)cn3)nc2n(C2CCCC2)c1=O [Palbociclib] (partner 0.5 µM)
How it was run: as §1

Vandetanib + Bortezomib = compound: COc1cc2/c(=N/c3ccc(Br)cc3F)nc[nH]c2cc1OCC1CCN(C)CC1 [Vandetanib] + CC(C)C[C@H](NC(=O)[C@H](Cc1ccccc1)NC(=O)c1cnccn1)B(O)O [Bortezomib] (partner 0.002 µM)
How it was run: as §1

Vandetanib + Linsitinib = compound: COc1cc2/c(=N/c3ccc(Br)cc3F)nc[nH]c2cc1OCC1CCN(C)CC1 [Vandetanib] + C[C@]1(O)C[C@@H](c2nc(-c3ccc4ccc(-c5ccccc5)nc4c3)c3c(N)nccn32)C1 [Linsitinib] (partner 1 µM)
How it was run: as §1

Cell Line	relative viability ([1]; first compound 0.005 µM)	relative viability ([1]; first compound 0.01581 µM)	relative viability ([1]; first compound 0.05 µM)	relative viability ([1]; first compound 0.1581 µM)	relative viability ([1]; first compound 0.5 µM)	relative viability (NVP-TAE684 + Palbociclib; first compound 0.2 µM)	relative viability (NVP-TAE684 + Palbociclib; first compound 0.6325 µM)	relative viability (NVP-TAE684 + Palbociclib; first compound 2 µM)	relative viability (Vandetanib + Bortezomib; first compound 0.02 µM)	relative viability (Vandetanib + Bortezomib; first compound 0.06325 µM)	relative viability (Vandetanib + Bortezomib; first compound 0.2 µM)	relative viability (Vandetanib + Bortezomib; first compound 0.6325 µM)	relative viability (Vandetanib + Bortezomib; first compound 2 µM)	relative viability (Vandetanib + Linsitinib; first compound 0.02 µM)	relative viability (Vandetanib + Linsitinib; first compound 0.06325 µM)	relative viability (Vandetanib + Linsitinib; first compound 0.2 µM)	relative viability (Vandetanib + Linsitinib; first compound 0.6325 µM)	relative viability (Vandetanib + Linsitinib; first compound 2 µM)
NCI-H838	0.216	0.242	0.243	0.262	0.249	0.199	0.197	0.141	0.73	0.807	0.664	0.706	0.614	1.02	1.07	1.02	1.01	1.01
NCI-H2228	0.302	0.324	0.305	0.379	0.259	0.44	0.253	0.279	0.775	0.942		1.03	0.814	0.589	0.54		0.707	0.585
NCI-H661	0.84	0.916	0.85	0.904	0.876	0.423	0.378	0.424	0.828	0.943	0.769	0.807	0.702	0.585	0.506	0.59	0.672	0.418
EKVX	0.398	0.382	0.39	0.459	0.417	0.358	0.351	0.34	1.09	0.998	1.03	0.796	0.666	1.04	0.948	0.962	0.793	0.493
HCC-827	0.238	0.239	0.25	0.264	0.259	0.452	0.511	0.5	1.06	1.02	1.04	0.795	0.495	0.922	0.941	0.929	0.367	0.198
NCI-H2009	0.992	1.05	0.98	1.09	1.02	0.2	0.183	0.203	0.895	0.931	1.06	0.996	1.21	1.17	1.16	1.3	1.22	1.19
NCI-H1437	0.329	0.298	0.321	0.335	0.311	0.321	0.291	0.231	0.486	0.56	0.47	0.506	0.398	0.994	0.971	1.04	1.01	0.966
NCI-H2087	0.616	0.661	0.634	0.645	0.645	0.206	0.22	0.248	0.813	0.761	0.859	0.857	0.833	0.918	1.03	0.831	0.922	0.911
LCLC-103H	0.497	0.502	0.458	0.461	0.468	0.482	0.447	0.413	1.09	0.966	1.05	1.05	0.924	1.09	1	1.23	0.929	1.03
PC-14	0.155	0.133	0.106	0.136	0.148	0.434	0.398	0.0888	1.03	0.939	1.05	0.295	0.258	0.988	0.911	1.03	0.617	0.249
H3255	0.568	0.558	0.532	0.622	0.584	0.324	0.299	0.296	0.972	0.71	0.632	0.367	0.233	1.1	0.9	0.949	0.654	0.181
NCI-H460		0.0618	0.0556	0.0607	0.0831	0.183	0.168	0.098	1.02	0.992	1.1	1.09	0.98	0.733	0.758	0.0194	0.757	0.58
HOP-62	0.344	0.337	0.33	0.345	0.351	0.54	0.501	0.491	0.624	0.667	0.847	0.918	0.663	1.04	0.965	0.926	1.05	0.977
HCC-78	0.793	0.886	0.92	0.92	0.784	0.487	0.388	0.479	0.618	0.6	0.511	0.668	0.383	0.414	0.438	0.567	0.579	0.337
NCI-H2085	0.763	0.785	0.843	0.851	0.89	0.463	0.512	0.478	1.08	1.02	1.02	1.09	1.04	1.01	0.837	0.855	0.945	0.793
COR-L23	0.211	0.207	0.187	0.206	0.17	0.307	0.209	0.152	0.869	0.814	0.925	0.999	0.994	0.757	0.688	0.131	0.919	0.955
HARA	0.271	0.205	0.259	0.283	0.305	0.297	0.234	0.164	1.17	1.07	0.937	1.07	1.05	1.03	0.749	1.04	0.985	0.989
201T	0.348	0.337	0.349	0.313	0.357	0.358	0.333	0.312	1.03	1.08	1.13	1.03	1.06	1.08	0.936	0.989	0.944	1.01

From the supplement of paper PMC10307832
